Experimental data as given in patent US20250263383A1, “NOVEL INHIBITORS OF GUANOSINE MONOPHOSPHATE SYNTHETASE AS THERAPEUTIC AGENTS” (University of Southern California, priority 2018, published 2025).

Columns and labels:
NCI-H23 cells = assay: Sulforhodamin B viability assay; assay type: cell-based; details: NCI-H23, Non-Small Cell Lung Cancer; negative values represent cell mortality percentage
UO-31 cells = assay: Sulforhodamin B viability assay; assay type: cell-based; details: UO-31, Renal Cancer; negative values represent cell mortality percentage
HL-60(TB) cells = assay: Sulforhodamin B viability assay; assay type: cell-based; details: Leukemia, negative values represent cell mortality percentage
[1] = test system: eight distinct cancer cell lines; assay: Sulforhodamin B viability assay, all cell lines; assay type: cell-based; details: across all the eight cell lines tested
OVCAR-5 cells = assay: Sulforhodamin B viability assay; assay type: cell-based; details: OVCAR-5, Ovarian Cancer; negative values represent cell mortality percentage
SF-539 cells = assay: Sulforhodamin B viability assay; assay type: cell-based; details: SF-539, CNS Cancer; negative values represent cell mortality percentage
BT-549 cells = assay: Sulforhodamin B viability assay; assay type: cell-based; details: BT-549, Breast Cancer; negative values represent cell mortality percentage
HT29 cells = assay: Sulforhodamin B viability assay; assay type: cell-based; details: HT29, Colon Cancer; negative values represent cell mortality percentage
SK-MEL-5 cells = assay: Sulforhodamin B viability assay; assay type: cell-based; details: SK-MEL-5, Melanoma; negative values represent cell mortality percentage
recombinant human GMPS = recombinant human GMPS (Homo sapiens (Human), UniProt P49915); assay: enzymatic assay against recombinant GMPS, UV absorbance at 290 nm; details: for IC50 against GMPS, in words: recombinant GMPS; for IC50: recombinant human GMPS
Chain of recombinant human GMPS (P49915 whole entry): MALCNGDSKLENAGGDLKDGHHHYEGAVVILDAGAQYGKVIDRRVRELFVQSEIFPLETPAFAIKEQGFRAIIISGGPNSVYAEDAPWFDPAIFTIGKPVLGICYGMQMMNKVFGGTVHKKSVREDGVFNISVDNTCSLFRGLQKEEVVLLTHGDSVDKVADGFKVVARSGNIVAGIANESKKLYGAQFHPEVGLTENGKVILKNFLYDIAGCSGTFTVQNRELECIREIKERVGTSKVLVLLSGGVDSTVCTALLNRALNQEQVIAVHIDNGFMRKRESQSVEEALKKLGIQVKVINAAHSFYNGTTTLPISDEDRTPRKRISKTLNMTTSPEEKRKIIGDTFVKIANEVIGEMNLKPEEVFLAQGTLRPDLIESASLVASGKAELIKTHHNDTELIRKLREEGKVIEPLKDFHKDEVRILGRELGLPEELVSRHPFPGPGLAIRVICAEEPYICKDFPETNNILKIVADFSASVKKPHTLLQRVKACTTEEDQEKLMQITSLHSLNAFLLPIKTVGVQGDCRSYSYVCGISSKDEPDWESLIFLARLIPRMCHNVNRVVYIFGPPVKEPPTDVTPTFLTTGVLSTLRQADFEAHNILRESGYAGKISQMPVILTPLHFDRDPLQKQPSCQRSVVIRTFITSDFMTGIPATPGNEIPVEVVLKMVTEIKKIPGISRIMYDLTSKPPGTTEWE
Experimental: The potency of the five compounds was tested against recombinant GMPS in an enzymatic assay by monitoring UV absorbance at 290 nm and by determining an IC50.

C#CCOc1cccc(Nc2ncnc3ccc(NC(=O)CCl)cc23)c1 [Compound 1, 2-chloro-N-(4-((3-(prop-2-yn-1-yloxy)phenyl)amino)quinazolin-6-yl) acetamide]
Cell survival (NCI-H23 cells): −66.8% | Cell survival (UO-31 cells): −87.8% | Cell survival (HL-60(TB) cells): −58.4% | cell death [1]: > 50% | Cell survival (OVCAR-5 cells): −70.1% | Cell survival (SF-539 cells): −86.6% | Cell survival (BT-549 cells): −68.9% | Cell survival (HT29 cells): −78.6% | Cell survival (SK-MEL-5 cells): −92.8%

COc1cccc(Nc2ncnc3ccc(NC(C)=O)cc23)c1 [Compound 3, N-(4-((3-methoxyphenyl)amino)quinazolin-6-yl) acetamide]
IC50 against GMPS, in words (recombinant human GMPS): less active | IC50 (recombinant human GMPS): > 1 µM

C#CCOc1cccc(C(=O)Nc2cccc(NC(=O)CCl)c2)c1 [Compound 5, N-(3-(2-chloroacetamido)phenyl)-3-(prop-2-yn-1-yloxy)benzamide]
IC50 against GMPS, in words (recombinant human GMPS): less active | IC50 (recombinant human GMPS): > 1 µM
